Results from US20090054358A1, “Flt3 inhibitors for immune suppression” (THE JOHN HOPKINS UNIVERSITY, priority 2004, published 2009).
“Also recorded” adds a separate entry of the source.

Key:
T cells [1] = assay: DC-stimulated proliferation of T cells (3H incorporation); type: cell-based, mice
Description: (§1) FLT3 inhibition decreases DC-based proliferation of T cells. For these experiments, DCs were generated as above from BALBc mice. The cells were left untreated or were treated with CEP701 and then plated with C57BL/6 splenocytes at the ratios shown. After 3 days, ^3H was added, and the proliferation determined. […] In FIG. 2b, BALB/c splenocytes were substituted for DCs, in order to test the inhibition of CEP701 on a standard mixed lymphocyte reaction (MLR). […] To determine whether T cell stimulatory response would be inhibited as a result of exposure to AG1296, two different T cell proliferative assays were conducted. […] In this standard mixed lymphocyte reaction, equal numbers of stimulator and responder cells (10^6 of each) were mixed in a 96 well plate, incubated for 4 days, pulsed with 3H-thymidine, and proliferation was determined by analyzing incorporation of tritium. DC-stimulated proliferation was also determined by incubating BM derived DCs (day 8, as above) at a ratio of 1:10 with responder allogeneic splenocytes, in the presence (10 μm) or absence of AG1296.

[2] = tested on: co-stimulatory molecules B7.2 (CD 86) and B7-DC; assay: Expression of co-stimulatory molecules B7.2 (CD 86) and B7-DC on DCs; type: cell-based, Murine; details: AG1296 at 0, 1, or 10 μM
Description: FIG. 6 depicts the treatment of DCs with AG1296 at either 0, 1, or 10 μM and then analyzed for the expression of co-stimulatory molecules B7.2 (CD 86) and B7-DC.
(§2) To investigate the role of FL/FLT3 stimulation in regulating costimulatory protein expression by DC, […] or GM-CSF plus FL, were analyzed by Northern blotting for expression of B7-DC, a member of the B7 family of co-stimulatory molecules. […] The inhibition of FLT3 signaling led to a down-regulation of B7-DC as well as B7.2 (CD 86) in these DCs (FIG. 6).

[3] = tested on: Dendritic cells (CD11c+ cells); assay: Apoptosis, survival of mature bone-marrow DCs treated with FLT3 inhibitors (FACS, Annexin V); type: cell-based, mice; details: for apoptosis in DCs (Annexin V binding): 24 hours; for survival and stimulation of the DCs: mature DCs, dose-response analysis, in the presence of GM-CSF+/−FL
Description: The survival and function of the DCs was investigated when exposed to FLT3 inhibitors. Mature DCs were incubated in a dose-response analysis to CEP 701, 5214 and AG 1296 in the presence of GM-CSF+/−FL.
Bone marrow (BM) was flushed from the extremities of mice with PBS, red blood cells (RBCs) were lysed in hypotonic buffer, and after washing the cells were plated at 2×10^6 cells/ml in GM-CSF (1000 U/ml) or GM+FL (100 ng/ml) containing medium. On days 2, 4, and 6, non-adherent cells were removed and adherent cells were washed prior to the addition of fresh medium. On day 8, non-adherent mature DCs were harvested, and replated in the absence or presence of CEP-701 at 5 or 50 nM. After 24 hours, cells were then stained for FACS analysis. CD11c+ cells were assessed for MHC class II expression and Annexin V binding (FIG. 1A).
After washing, the cells were plated at 2×10^6 cells/ml in GM-CSF (1000 U/ml)+FL (100 ng/ml) containing medium. On days 2, 4, and 6, non-adherent cells were removed and adherent cells were washed prior to the addition of fresh medium. On day 8, non-adherent mature DCs were harvested, and replated in the absence or presence of AG 1296. After 24 hours, cells were stained for FACS analysis. Dendritic cells (CD11c+ cells) were assessed for CD86 expression and Annexin V binding (FIG. 1B). […] For DCs to activate T cells, they present antigen bound to MHC molecules and express co-stimulatory proteins on their surfaces.

BALB/c splenocytes = assay: Standard mixed lymphocyte reaction (MLR); type: cell-based, mice
Description: as §1

axons = assay: Degenerating axonal fibers in medial dorsal column of MOG-immunized mice; type: in vivo; details: cervical level 5, 210 days post disease induction, versus vehicle
Source text: In reference to FIG. 10, intact brain and spinal cords were removed from mice that were immunized with MOG peptide, and either treated with the vehicle control or CEP-701 after symptom onset. Following treatment and scoring, the mice were kept for an additional 2 months, then sacrificed and the CNS prepared for evaluation by preservation in formalin. Thin plastic sections ([…]) were generated from cervical level 5, followed by staining in Toluidine blue and axons were visualized. Total axon numbers and actively degenerating fibers in a predefined area of the medial dorsal column were enumerated by an experienced examiner in a blinded fashion. Plots show the number of degenerating axonal fibers in the defined field area for the sections of CEP-701 treated mice compared to vehicle control mice at 210 days post disease induction.

[4] = tested on: CD11c and NK cell populations; assay: Immune cell populations in spleens and lymph nodes of treated mice (FACS); type: in vivo, BALB/c mice; details: 20 mg/kg twice a day for 5 days
Description: BALB/c mice were treated with 20 mg/kg of CEP701 or vehicle twice a day for 5 days, and then were analyzed for their immune populations. Spleens and lymph nodes were harvested and collagenase digested to release DCs from the stroma. Cells were then washed and analyzed by FACS for the presence of T (CD3+/DX5−), NK (CD3−,DX5+), B (B220+, CD11c−) or DCs (CD11c+).

[5] = tested on: transgenic T cells that are specific for HA; assay: In vivo autoreactive T cell expansion in HA transgenic (137) mice given 6.5 T cells; details: 137 mice treated 3 days prior to and 5 days after T cell transfer
[6] = Established experimental autoimmune encephalomyelitis (EAE), MOG 35-55; type: in vivo, C57BL/6 mice; details: 20 mg/kg, started within one day of initial symptoms, scored daily, blinded
Description: C57BL/6 mice were injected with 100 micrograms of the Established Experimental Allergic Encephalitomyelitis (EAE) inducing peptide MOG 35-55 in CFA with 400 micrograms of Mycobacterium tuberculosis. On the day of immunization and 48 hours later, mice were boosted with pertussis toxin, following standard protocols. […] Scores were as follows: 0 (no symptoms), 0.5 (partial loss of tail tonicity), 1 (full loss of tail tonicity), 2 (affected gait), 2.5 (partial hind limb paralysis) 3 (full hind limb paralysis) 4 (front and hind paralysis) 5 (moribund). 10 mice/group were treated in the study shown.

T cells [7] = assay: Direct stimulation of T cells on anti-CD3 plates with anti-CD28 antibody; type: cell-based; details: anti-CD3 coated plates, 2 days, 3H
Description: T cells were then stimulated with anti-CD28 antibody. After 2 days, 3H was added, and the proliferation determined.

B7-DC = assay: Northern blot for hB7-DC in human bone marrow cells treated with cytokines; type: cell-based; details: FL added to GM-CSF
Description: as §2

Molecule: COc1cc2ncc(-c3ccccc3)nc2cc1OC [AG1296]
- T cell proliferation induced by DCs (T cells [1]; BM derived DCs 1:10 with allogeneic splenocytes, AG1296 10 μm): decrease in T cell proliferation; also recorded: inhibited
- expression of co-stimulatory molecule B7-DC on DCs [2]: down regulated
- expression of co-stimulatory molecule B7.2 (CD 86) on DCs [2]: down regulated
- apoptosis in DCs (Annexin V binding) ([3]; AG 1296 at 0, 1, and 10 μM, DCs generated in GM-CSF + FL): confirmed; also recorded: induced apoptosis in DCs in a dose-dependent fashion
- apoptosis in DCs (Annexin V binding) ([3]; AG 1296 at 0, 1, and 10 μM, DCs generated in GM-CSF + FL, listed as AG 1296): induction of apoptosis in a significant fraction of the DCs
- survival and stimulation of the DCs [3]: decrease in survival and stimulation
- mixed lymphocyte reaction proliferation (BALB/c splenocytes; allogeneic spleen cells, 10^6 each, 4 days, 3H-thymidine, AG1296 10 μm): inhibition

Molecule: C[C@]12O[C@H](C[C@]1(O)CO)n1c3ccccc3c3c4c(c5c6ccccc6n2c5c31)CNC4=O [CEP-701]
- DC-based proliferation of T cells (T cells [1]; BALBc DCs treated with CEP701, plated with C57BL/6 splenocytes, 3 days, 3H): robust effect on decreasing proliferation of T cells
- number of degenerating axonal fibers (neurodegeneration) (axons): decrease in neurodegeneration
- B (B220+, CD11c−) cell population [4]: no significant change
- DC (CD11c+) population [4]: decreases
- NK (CD3−,DX5+) population [4]: decreases
- T (CD3+/DX5−) cell population [4]: no significant change
- apoptosis in DCs (Annexin V binding) ([3]; CEP-701 at 5 or 50 nM, DCs generated in GM-CSF alone or GM-CSF and FL): induced apoptosis; also recorded: induction of apoptosis in a significant fraction of the DCs
- survival and stimulation of the DCs [3]: decrease in survival and stimulation
- autoreactive T cell expansion, as measured by thy 1.1 ([5]; listed as CEP 701): decreases an in vivo autoreactive immune response
- autoreactive T cell expansion, as measured by thy 1.1 ([5]; listed as CEP701): decrease in the autoreactive T cell expansion
- EAE clinical score (0-5) [6]: lower scores
- mixed lymphocyte reaction (MLR) response (BALB/c splenocytes; BALB/c splenocytes substituted for DCs, CEP701): inhibited
- proliferation of directly stimulated T cells (T cells [7]): does not inhibit their proliferation

Molecule: CC(C)OCc1ccc2c(c1)c1c3c(c4c(c1n2CCCO)Cc1ccccc1-4)C(=O)NC3 [CEP-5214]
- apoptosis in DCs ([3]; CEP-5214, data not shown): confirmed
- survival and stimulation of the DCs [3]: decrease in survival and stimulation

B1: FL: FLT3 Ligand (FL), ligand that stimulates the FLT3 receptor (protein, UniProt P49771 27-235, looked up)
Fms-related tyrosine kinase 3 …: TQDCSFQHSPISSDFAVKIRELSDYLLQDYPVTVASNLQDEELCGGLWRLVLAQRWMERLKTVAGSKMQGLLERVNTEIHFVTKCAFQPPPSCLRFVQTNISRLLQETSEQLVALKPWITRQNFSRCLELQCQPDSSTLPPPWSPRPLEATAPTAPQPPLLLLLLLPVGLLLLAAAWCLHWQRTRRRTPRPGEQVPPVPSPQDLLLVEH
- B7-DC expression (Northern blot) (B7-DC): greatly up-regulates
